Tested on: retinal blood vessels
Assay: fluorocarbon inserted into the vitreous area of the rabbit eye, examination for retinal vessel damage
Type: in vivo
Details: 1.2 ml into one eye each of two rabbits after gas compression of the vitreous body; durations of between two days and six weeks
Experimental: In fluorescence angiography, a narrowing of the vessels appears from the second post-operative day. As time passes, vessel occlusions, a rarefaction of the capillary bed and the development of microaneurisms appear.
This oxygen-lacking perfluorodecalin was then sterile filtered and injected into one eye each of two rabbits, whereby, prior to the injection, the vitreous body was gas compressed in a known manner. After the gas compression, the gas was […] exchanged for 1.2 ml of the deoxygenated perfluorodecalin, so that about two thirds of the vitreous body area, including the area of the retinal blood vessels, was filled with perfluorodecalin.
After durations of between two days and six weeks, the eyes were examined for vessel damage.

**Q.** `FC1(F)C(F)(F)C(F)(F)C2(F)C(F)(F)C(F)(F)C(F)(F)C(F)(F)C2(F)C1(F)F` (stereo not shown) [oxygen-lacking perfluorodecalin, perfluorodecalin] was tested. Which “eyes examined for vessel damage, in comparison to the untreated eye” value did it give?
**A.** Its value is “completely normal condition”.

Reference: patent US6372243B2, “Low-oxygen fluorocarbon as an agent for ophthalmology” (Pharm pur GmbH, priority 1998, dated 2002)
